The test has as its system hPSC-derived primitive splanchnic mesoderm (SM). In words: Treatment of hPSC-derived primitive SM from d4-d7 with HH, RA, Wnt and BMP agonists or antagonists; RT-PCR, immunostaining, RNA-scope. Format: cell-based, human. As for the experimental part:
For RNAscope on mouse tissue, fixed embryos were immersed in 30% sucrose/PBS overnight, embedded in OCT, cryosectioned (12 μm) onto Superfrost Plus slides (Thermo Fisher) and stored at −80° C. overnight. For RNAscope of adherent hPSC culture, cells were differentiated on Geltrex-coated u-Slide 8 well (ibid) and fixed in 4% PFA at room temperature for 30 min, Cells were dehydrated with ethanol gradient and stored in 100% ethanol at −20° C. RNAscope fluorescent in situ hybridization was conducted with RNAscope Multiplex Fluorescent Detection Reagents V2 (Advanced Cell Diagnostics, Inc.) and Opal fluorophore (Akoya Biosciences) according to manufacturer's instructions.
Differentiation of hPSCs into lateral plate mesoderm was induced using previously described methods with modifications. In brief, partially confluent hPSCs were dissociated into very fine clumps in Accutase (Invitrogen) and passaged 1:18 onto new Geltrex-coated 24-well plates for immunocytochemistry and 12-well plates for RNA preparation in mTeSR1 with 1 μM thiazovivin (Tocris) (Day 1). […]
Total RNA was prepared from differentiating human ES cells by using Nucleospin kit according to manufacturer's protocol. […] Significance was determined by one-way ANOVA, followed by Tukey's test. […]

The text below walks through data of patent US20220275341A1, “ORGANOID MESODERM LINEAGE DIVERSIFICATION” (CHILDREN'S HOSPITAL MEDICAL CENTER, priority 2019, published 2022).

On to `c1ccc2c(Oc3nc(Nc4ccc(N5CCOCC5)cc4)c4ncn(C5CCCCC5)c4n3)cccc2c1` [HH-agonist, purmorphamine], for which the gut tube identity entry is “promoted” and the hepatic fate entry is on record as “efficiently blocked”.
